Source: patent US5571687A, “Modulators of multidrug resistance transporters” (Duke University, priority 1994, dated 1996)
Like-named read-outs stand apart in the source and are kept apart here. Blank lines part the entries; values can stand above or below the molecule they belong to.

Key:
[1] = target: P-glycoprotein (human MDR1 expressed in Sf9 cells) (Homo sapiens, UniProt P08183, G185V); experiment: P-gp-associated ATPase activity (vanadate-sensitive release of inorganic phosphate from ATP), stimulation, membranes of Sf9 cells expressing human MDR1
From the text: (§1) physiologic and non-physiologic compounds, including prenylcysteines and analogs thereof, can be tested in vitro for their ability to serve as P-gp substrates (and thus modulators of MDR transporter activity), both in terms of stimulating the intrinsic ATPase activity of the transporter and competing for drug binding. Insect cells (eg Sf9 cells) infected with baculovirus containing MDR1 cDNA (available from the American Type Culture Collection, Rockville, Md.) can be used as a source of membranes suitable for use in such in vitro screens. Membranes from drug-induced resistant cells can also be used (eg, MCF7-MDR breast cancer cells). Details of an appropriate protocol for testing compounds for their ability to stimulate P-gp-associated ATPase are given in the Examples. The method described involves incubating MDR transporter-containing membranes with the test compound and measuring the level of vanadate sensitive release of inorganic phosphate from ATP (see Sarkadi et al, J. Biol. Chem. 267:4854 (1992)).
Sf9 cells were grown in Grace's insect culture media supplemented with 10% fetal bovine serum (HyClone), 0.1% Pluronic F-68, 100 unit/ml penicillin and 100 μg/ml streptomycin. Sf9 cells were infected with baculovirus according to established procedures (O'Reilly et al, Baculovirus Expression Vectors--A Laboratory Manual, New York: W.H. Freeman & Co. (1992)). Recombinant baculovirus containing the human MDR1V185 cDNA (Germann et al, Biochemistry 29:2295 (1990)) was provided by Dr. M. Gottesman (MDR1 cDNAs are available from the American Type Culture Collection, Rockville, Md.). Mock-infection was carried out using recombinant baculovirus containing the cDNA encoding a protein prenyltransferase. […] These cells were grown in Iscove's Modified Dulbecco's Media (MDM) supplemented with 10% fetal bovine serum. The MCF7-MDR cells were exposed to 10 μM doxorubicin every 8-10 passages to maintain the drug-resistant phenotype.
Sf9 membranes were prepared from cells harvested 3 days after infection with specified baculovirus as described (Sarkadi et al, J. Biol. Chem. 267:4854 (1992)). MCF7 membranes from both wild-type and drug-resistant cell lines were prepared by nitrogen cavitation procedures (Cornwell et al, J. Biol. Chem. 261:7921 (1986)), flash-frozen in liquid nitrogen, and stored at -80° C. until use.
P-gp-associated ATPase activity was measured by determining vanadate-sensitive release of inorganic phosphate from ATP as described (Sarkadi et al, J. Biol. Chem. 267:4854 (1992)). Sf9 membranes containing 5-10 μg protein were incubated in 100 μl of 50 mM Mes-Tris, pH 6.8, 50 mM KCl, 2 mM DTT, 2 mM EGTA, 1 mM ouabain, 5 mM sodium azide, 5 mM Mg/ATP. P-gp-associated ATPase activity in MCF7-MDR cells was measured using the same condition except that 50 mM Mes-Tris, pH 6.8 was replaced by 50 mM Tris-HCl, pH 7.5. […] Reactions were conducted at 37° C. for 20 min.

[2] = target: P-gp (Homo sapiens, UniProt P08183, G185V); experiment: Inhibition of basal and drug-stimulated P-gp ATPase activity; assay type: biochemical
From the text: FIG. 3. Ability of acetyl farnesyl methylester (AFCME) to block drug stimulated ATPase of MDR.
FIG. 4. Interaction of prenylcysteine methylamides and prenylcysteine-containing dipeptides with P-gp. The compounds were purified by reversephase HPLC chromatography and analyzed for their ability to stimulate the ATPase activity of P-gp in Sf9 membranes and, in the case of AFCMA, to inhibit FCME-stimulated ATPase activity as described for AFCME in Example 4. Left panel--Stimulation of P-gp ATPase activity in Sf9 membranes. Increasing concentration of FCMA (.box-solid.), farnesylated γGlu-Cys (unmethylated F-dipeptide, Δ), and the methylated form of farnesylated γGlu-Cys (methylated F-dipeptide, .tangle-solidup.) were analyzed. Right panel AFCMA inhibition of P-gp ATPase activity in Sf9 membranes. Increasing concentrations of AFCMA were added to membranes from Sf9 cells expressing P-gp either with no added drug (.largecircle.) or along with 20 μM […] as an ATPase stimulator (.circle-solid.).
The ATPase assay can also be used to identify test compounds that inhibit P-gp activity, ie P-gp antagonists, which are also potential agents for reversing P-gp-mediated drug resistance. In this type of assay, the ability of a selected test compound to reduce P-gp-ATPase which has been stimulated by a drug known to elicit this activity (eg verapimil or farnesylcysteine methyl ester (FCME) is examined. Increasing concentrations of the selected test compound and a fixed amount of the stimulatory drug are mixed, added to the P-gp preparation, and ATPase activity determined. A dose-dependent inhibition of ATPase activity by the selected compound indicates an antagonist.
Reactions were conducted at 37° C. for 20 min.

[3] = target: native P-gp expressed in the drug-resistant human breast cancer cell line MCF7-MDR (Homo sapiens, UniProt P08183); details: mcf7-mdr membranes, 20 min
From the text: as §1, with “(1992)). […]” for “(1992)).”
P-gp-associated ATPase activity was measured by determining vanadate-sensitive release of inorganic phosphate from ATP as described (Sarkadi et al, J. Biol. Chem. 267:4854 (1992)). […] P-gp-associated ATPase activity in MCF7-MDR cells was measured using the same condition except that 50 mM Mes-Tris, pH 6.8 was replaced by 50 mM Tris-HCl, pH 7.5. […]

[4] = read-out: maximum stimulation of P-gp ATPase

SMILES: CC(=O)N[C@@H](CSCC=C(C)CCC=C(C)CCC=C(C)C)C(=O)O [AFC, N-acetyl-S-farnesylcysteine]
ATPase stimulation (in words) [1]: did not stimulate the transporter's ATPase activity

SMILES: CNC(=O)C(CSCC=C(C)CCC=C(C)CCC=C(C)C)NC(C)=O (stereo not drawn) [AFCMA]
inhibition of drug-stimulated P-gp ATPase activity (in words) ([2]; Sf9 membranes, FIG. 4 right panel): potent in stimulation (FCMA) and inhibition of drug-stimulated (AFCMA) P-gp ATPase activities

SMILES: CC(C)=CCCC(C)=CCCC(C)=CCSC[C@H](NC(=O)CC[C@H](N)C(=O)O)C(=O)O [F-γGlu- Cys]
stimulation of P-gp ATPase activity (in words) [1]: stimulate P-gp ATPase activity in a methylation-dependent fashion

SMILES: CC(C)=CCCC(C)=CCCC(C)=CCSC[C@H](N)C(=O)O [FC, S-farnesylcysteine]
stimulation of P-gp ATPase activity (in words) [1]: ineffective in stimulating the ATPase of P-gp

SMILES: CC(C)=CCC/C(C)=C/CC/C(C)=C/CC/C(C)=C/CSC[C@H](N)C(=O)O [GGC, S-geranylgeranylcysteine]
stimulation of P-gp ATPase activity (in words) [1]: ineffective in stimulating the ATPase of P-gp

More lines, main results first:

concentration at which the transporter's basal ATPase activity is inhibited ([2]; basal ATPase activity): > 20 µM | stimulation of ATPase activity at low concentrations (in words) ([2]; low (<20 μM) concentrations, preliminary analysis): weak stimulation of the ATPase activity
SMILES: COC(=O)[C@H](CSCC=C(C)CCC=C(C)CCC=C(C)C)NC(C)=O [AFCME, N-acetyl-S-farnesylcysteine methyl ester]
ATPase stimulation (in words) [1]: essentially abolished its stimulatory effect | blocking of basal and drug (FCME, verapamil)-stimulated ATPase activity (in words) ([2]; dose-dependent, FIG. 3): can block both the basal and drug-stimulated ATPase activities of P-gp in a dose-dependent fashion | inhibition of basal ATPase activity (in words) ([2]; higher concentrations (above 20 μM), preliminary analysis): marked inhibition of even the basal ATPase activity

stimulation of P-gp ATPase activity (in words) [1]: potent in stimulation
SMILES: CNC(=O)C(N)CSCC=C(C)CCC=C(C)CCC=C(C)C (stereo not drawn) [FCMA]

concentration of maximum stimulation of P-gp ATPase [1]: 10 to 20 µM | Emax ([1]; read-out: Maximal stimulation of ATPase activity): ~450% | Emax [1, 4]: 400 to 500% | increase of P-gp-catalyzed ATP hydrolysis [3]: ~ 2.5 fold
SMILES: COC(=O)[C@@H](N)CSC/C=C(\C)CC/C=C(\C)CCC=C(C)C [FCME, S-farnesylcysteine methyl ester]
stimulation of P-gp ATPase activity (in words) [1]: stimulated this activity in a fashion very similar to that of verapamil

ATPase stimulation (in words) [1]: ineffective
SMILES: CC(C)=CCCC(C)=CCCC(C)=CCO [FOH, Farnesol, reference compound]

concentration of maximum stimulation of P-gp ATPase [1]: 10 to 20 µM | Emax [1, 4]: 400 to 500% | increase of P-gp-catalyzed ATP hydrolysis [3]: ~ 2.5 fold
SMILES: COC(=O)[C@@H](N)CSC/C=C(\C)CC/C=C(\C)CC/C=C(\C)CCC=C(C)C [GGCME, S-geranylgeranylcysteine methyl ester]
stimulation of P-gp ATPase activity (in words) [1]: stimulated this activity in a fashion very similar to that of verapamil
